In patent publication US9156796B2, “Benzoimidazole-carboxylic acid amide derivatives as APJ receptor modulators” (SANOFI, priority 2013, dated 2015):

biological target: T1, human apelin receptor (Homo sapiens, UniProt P35414); assay: Determination of agonism on the human apelin receptor by a calcium fluorescence assay (FLIPR); format: cell-based; conditions: EC50 (APJ agonism), HEK293 cells stably transfected with human apelin receptor and Giaq protein, Fluo-4 calcium fluorescence
T1 construct: expressed in transfected cells
T1 sequence (P35414 1-380): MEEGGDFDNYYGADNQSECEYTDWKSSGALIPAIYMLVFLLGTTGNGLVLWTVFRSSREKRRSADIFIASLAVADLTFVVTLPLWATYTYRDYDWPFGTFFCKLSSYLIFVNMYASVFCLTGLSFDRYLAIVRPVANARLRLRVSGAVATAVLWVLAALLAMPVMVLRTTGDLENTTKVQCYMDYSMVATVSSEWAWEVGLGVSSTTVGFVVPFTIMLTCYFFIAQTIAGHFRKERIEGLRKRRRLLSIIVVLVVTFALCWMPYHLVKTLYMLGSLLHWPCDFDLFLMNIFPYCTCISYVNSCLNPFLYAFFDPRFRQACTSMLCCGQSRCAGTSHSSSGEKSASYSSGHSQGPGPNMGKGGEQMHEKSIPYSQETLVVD
In short: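 Agonist EC50s come from peak intracellular calcium transients recorded by FLIPR Tetra, scaled to the 1 μM apelin-13 maximum per plate. Test system: HEK293 stably transfected with human apelin receptor plus Giaq, Fluo-4-loaded (4 μM, 1 h, 37 °C, pH 7.4 buffer with probenecid); ≥7 concentrations, triplicates.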

SMILES	EC50
CCCC[C@@H](CO)NC(=O)c1ccc2c(c1)nc(CC1CCCC1)n2C(CC)CC [Example 184, 2-Cyclopentylmethyl-1-(1-ethyl-propyl)-1H-benzoimidazole-5-carboxylic acid ((S)-1-hydroxymethyl-pentyl)-amide]	2900 nM

same assay, conditions: HEK293 cells stably transfected with human apelin receptor and Giaq protein, Fluo-4 calcium fluorescence, read-out: EC50 (APJ agonism)

SMILES	EC50
CCCN1CCCC(CNC(=O)[C@H](CC(C)C)NC(=O)c2ccc3c(c2)nc(Cc2cccs2)n3C(CC)CC)C1 (stereo partly drawn) [Example 309, 1-(1-Ethyl-propyl)-2-thiophen-2-ylmethyl-1H-benzoimidazole-5-carboxylic acid {(S)-3-methyl-1-[(1-propyl-piperidin-3-ylmethyl)-carbamoyl]-butyl}-amide]	482 nM
CCC(CC)n1c(Cc2cccs2)nc2cc(C(=O)N[C@@H](CC(C)C)[C@@H](O)CC(=O)O)ccc21 [Example 75, (3S,4S)-4-{[1-(1-Ethyl-propyl)-2-thiophen-2-ylmethyl-1H-benzoimidazole-5-carbonyl]-amino}-3-hydroxy-6-methyl-heptanoic acid]	66 nM
CCC(CC)n1c(Cc2cccs2)nc2cc(C(=O)N[C@@H](CC(C)C)C(=O)NCC3CN(CC(C)C)CCO3)ccc21 (stereo partly drawn) [Example 355, 1-(1-Ethyl-propyl)-2-thiophen-2-ylmethyl-1H-benzoimidazole-5-carboxylic acid {(S)-1-[(4-isobutyl-morpholin-2-ylmethyl)-carbamoyl]-3-methyl-butyl}-amide]	1520 nM
CC(C)C[C@@H](CC(=O)O)NC(=O)c1ccc2c(c1)nc(Cc1ccco1)n2C1CCCCC1C (single isomer, unassigned) [Example 432]	32 nM
CCC(CC)n1c(Cc2cccs2)nc2cc(C(=O)N[C@@H](CC(C)C)C(=O)NCCCN3CCOCC3)ccc21 [Example 234, 1-(1-Ethyl-propyl)-2-thiophen-2-ylmethyl-1H-benzoimidazole-5-carboxylic acid [(S)-3-methyl-1-(3-morpholin-4-yl-propylcarbamoyl)-butyl]-amide]	344 nM
CCC(CC)n1c(Cc2cccs2)nc2cc(C(=O)N[C@H](Cc3n[nH]c(C(F)(F)F)n3)CC(C)C)ccc21 [Example 476, 1-(1-Ethyl-propyl)-2-thiophen-2-ylmethyl-1H-benzoimidazole-5-carboxylic acid [(S)-3-methyl-1-(5-trifluoromethyl-1H-[1,2,4]triazol-3-ylmethyl)-butyl]-amide]	3950 nM
CCC(CC)n1c(Cc2cccs2)nc2cc(C(=O)N[C@@H](CC(C)C)C(=O)N3CCC(N4CCCCC4)C3)ccc21 (stereo partly drawn) [Example 299, 1-(1-Ethyl-propyl)-2-thiophen-2-ylmethyl-1H-benzoimidazole-5-carboxylic acid [(S)-3-methyl-1-(3-piperidin-1-yl-pyrrolidine-1-carbonyl)-butyl]-amide]	776 nM
CCC(CC)n1c(Cc2cccs2)nc2cc(C(=O)N[C@@H](CC(C)C)C(=O)N[C@H]3C[C@@H]3c3ccccc3)ccc21 [Example 259, 1-(1-Ethyl-propyl)-2-thiophen-2-ylmethyl-1H-benzoimidazole-5-carboxylic acid [(S)-3-methyl-1-((1S,2R)-2-phenyl-cyclopropylcarbamoyl)-butyl]-amide]	6650 nM
CCC(CC)n1c(Cc2cccs2)nc2cc(C(=O)N[C@@H](CC(C)C)C(=O)Nc3cccc(N(C)C)c3)ccc21 [Example 316, 1-(1-Ethyl-propyl)-2-thiophen-2-ylmethyl-1H-benzoimidazole-5-carboxylic acid [(S)-1-(3-dimethylamino-phenylcarbamoyl)-3-methyl-butyl]-amide]	22000 nM
CCC(CC)n1c(Cc2cccs2)nc2cc(C(=O)N[C@@H](CC(C)C)C(=O)Nc3ccc(F)cc3)ccc21 [Example 228, 1-(1-Ethyl-propyl)-2-thiophen-2-ylmethyl-1H-benzoimidazole-5-carboxylic acid [(S)-1-(4-fluoro-phenylcarbamoyl)-3-methyl-butyl]-amide]	8500 nM
CCC(CC)n1c(Cc2cccs2)nc2cc(C(=O)N[C@@H](CC(C)C)C(=O)N3CCC(N4CCCCCC4)CC3)ccc21 [Example 335, 1-(1-Ethyl-propyl)-2-thiophen-2-ylmethyl-1H-benzoimidazole-5-carboxylic acid [(S)-1-(4-azepan-1-yl-piperidine-1-carbonyl)-3-methyl-butyl]-amide]	384 nM
CCCC(NC(=O)c1ccc2c(c1)nc(Cc1cccs1)n2C(CC)CC)C(C)(C)C(=O)O (stereo not shown) [Example 63, 3-{[1-(1-Ethyl-propyl)-2-thiophen-2-ylmethyl-1H-benzoimidazole-5-carbonyl]-amino}-2,2-dimethyl-hexanoic acid]	343 nM
CCC(C)Cn1c(CC2CCCC2)nc2cc(C(=O)N[C@H](CC(=O)O)CC(C)C)ccc21 (stereo partly drawn) [Example 159, (S)-3-{[2-Cyclopentylmethyl-1-(2-methyl-butyl)-1H-benzoimidazole-5-carbonyl]-amino}-5-methyl-hexanoic acid]	15000 nM
CCC(CC)n1c(Cc2cccs2)nc2cc(C(=O)NC3(CO)CCCC3)ccc21 [Example 193, 1-(1-Ethyl-propyl)-2-thiophen-2-ylmethyl-1H-benzoimidazole-5-carboxylic acid (1-hydroxymethyl-cyclopentyl)-amide]	6220 nM
CC(C)C[C@@H](CC(=O)O)NC(=O)c1ccc2c(c1)nc(Cc1cncs1)n2[C@@H]1CCCC[C@H]1C [Example 106, (S)-5-Methyl-3-{[1-((1R,2R)-2-methyl-cyclohexyl)-2-thiazol-5-ylmethyl-1H-benzoimidazole-5-carbonyl]-amino}-hexanoic acid]	48 nM
CCC(CC)n1c(Cc2cccs2)nc2cc(C(=O)N[C@@H](CC(C)C)C(=O)NCC3CCN(CCOC)C3)ccc21 (stereo partly drawn) [Example 305, 1-(1-Ethyl-propyl)-2-thiophen-2-ylmethyl-1H-benzoimidazole-5-carboxylic acid ((S)-1-{[1-(2-methoxy-ethyl)-pyrrolidin-3-ylmethyl]-carbamoyl}-3-methyl-butyl)-amide]	319 nM
CCC(CC)n1c(Cc2cccs2)nc2cc(C(=O)NC(CCc3ccccc3)C(=O)O)ccc21 (stereo not shown) [Example 28, 2-{[1-(1-Ethyl-propyl)-2-thiophen-2-ylmethyl-1H-benzoimidazole-5-carbonyl]-amino}-4-phenyl-butyric acid]	18500 nM
CCC(CC)n1c(CC2CCCC2)nc2cc(C(=O)N[C@H](CO)CC(C)C)ccc21 [Example 175, 2-Cyclopentylmethyl-1-(1-ethyl-propyl)-1H-benzoimidazole-5-carboxylic acid ((S)-1-hydroxymethyl-3-methyl-butyl)-amide]	501 nM
CCC(CC)n1c(Cc2cccs2)nc2cc(C(=O)N[C@H](CC(=O)O)CC(C)C)ccc21 [Example 107, (S)-3-{[1-(1-Ethyl-propyl)-2-thiophen-2-ylmethyl-1H-benzoimidazole-5-carbonyl]-amino}-5-methyl-hexanoic acid]	47 nM
CCC(CC)n1c(Cc2cccs2)nc2cc(C(=O)NC3(C(=O)O)CCC(C)CC3)ccc21 (stereo not shown) [Example 34, 1-{[1-(1-Ethyl-propyl)-2-thiophen-2-ylmethyl-1H-benzoimidazole-5-carbonyl]-amino}-4-methyl-cyclohexanecarboxylic acid]	489 nM
CC(C)C[C@H](NC(=O)c1ccc2c(c1)nc(Cc1cccs1)n2C1CCCC1)C(=O)O [Example 110, (S)-2-[(1-Cyclopentyl-2-thiophen-2-ylmethyl-1H-benzoimidazole-5-carbonyl)-amino]-4-methyl-pentanoic acid]	2030 nM
O=C(O)C[C@H](Cc1ccccc1)NC(=O)c1ccc2c(c1)nc(Cc1cccs1)n2C1CCCCC1C(F)(F)F (stereo partly drawn) [Example 103, (S)-4-Phenyl-3-{[2-thiophen-2-ylmethyl-1-(2-trifluoromethyl-cyclohexyl)-1H-benzoimidazole-5-carbonyl]-amino}-butyric acid]	11000 nM
CCC(CC)n1c(Cc2cccs2)nc2cc(C(=O)N[C@@H](CC3CCC3)C(=O)O)ccc21 [Example 22, (S)-3-Cyclobutyl-2-{[1-(1-ethyl-propyl)-2-thiophen-2-ylmethyl-1H-benzoimidazole-5-carbonyl]-amino}-propionic acid]	80 nM
CCC(CC)n1c(Cc2cccs2)nc2cc(C(=O)N[C@@H](CC(C)C)C(=O)NCCC#N)ccc21 [Example 404, 1-(1-Ethyl-propyl)-2-thiophen-2-ylmethyl-1H-benzoimidazole-5-carboxylic acid [(S)-1-(2-cyano-ethylcarbamoyl)-3-methyl-butyl]-amide]	788 nM
CCC(CC)n1c(Cc2cccs2)nc2cc(C(=O)N[C@@H](CC(C)C)C(=O)N3CCC[C@@H]3COC)ccc21 [Example 365, 1-(1-Ethyl-propyl)-2-thiophen-2-ylmethyl-1H-benzoimidazole-5-carboxylic acid [(S)-1-((R)-2-methoxymethyl-pyrrolidine-1-carbonyl)-3-methyl-butyl]-amide]	2750 nM
CCC(CC)n1c(Cc2cccs2)nc2cc(C(=O)NC(C)(CC(C)C)C(=O)O)ccc21 (single isomer, unassigned) [Example 440]	6590 nM
CC(C)C[C@@H](CC(=O)O)NC(=O)c1ccc2c(c1)nc(Cc1cccs1)n2C1CCCCC1C (single isomer, unassigned) [Example 438]	661 nM
